According to ChEMBL document CHEMBL1156738, “Design, synthesis and evaluation of novel oxazaphosphorine prodrugs of 9-(2-phosphonomethoxyethyl)adenine (PMEA, adefovir) as potent HBV inhibitors” (Bioorg Med Chem Lett, 2009):

Tests used:
Hepatitis B virus [1] = experiment: Antiviral activity against Hepatitis B virus infected HepG2(2.2.15) cells assessed as inhibition of viral cytoplasmic DNA synthesis by real-time PCR; assay type: functional, organism-based
[2] = Cytotoxicity against human HepG2(2.2.15) cells; assay type: cell-based
[3] = Selectivity index, ratio of CC50 for human HepG2(2.2.15) cells to IC50 for Hepatitis B virus; assay type: functional
Homo sapiens = species on record: Homo sapiens; experiment: Metabolic stability in human plasma assessed as half life
[4] = Metabolic stability in human liver microsomes assessed as half life; assay type: ADME, Microsome
Hepatitis B virus [5] = experiment: Ratio of compound IC50 to adefovir dipivoxil IC50 for Hepatitis B virus; assay type: functional

Compound | IC50 (Hepatitis B virus [1]) | CC50 [2] | Ratio CC50/IC50 [3] | half-life (Homo sapiens) | half-life [4] | Ratio (Hepatitis B virus [5])
COC(=O)[C@H](C)N1CCCO[P@@]1(=O)COCCn1cnc2c(N)ncnc21.O=C(O)/C=C/C(=O)O | 0.91 µM | 590 µM | 649 |  |  | 
COC(=O)[C@H](C(C)C)N1CCCO[P@]1(=O)COCCn1cnc2c(N)ncnc21.O=C(O)/C=C/C(=O)O | 0.12 µM | 577 µM | 4800 | > 6 h | 3.6 h | 3
CC(C)OC(=O)[C@H](C(C)C)N1CCCO[P@]1(=O)COCCn1cnc2c(N)ncnc21.O=C(O)/C=C/C(=O)O | 5.76 µM | 592 µM | 103 |  |  | 
COC(=O)[C@H](C)N1CCCO[P@]1(=O)COCCn1cnc2c(N)ncnc21.O=C(O)/C=C/C(=O)O | 0.51 µM | 650 µM | 1270 |  |  | 
CCOC(=O)[C@@H](C(C)C)N1CCCO[P@]1(=O)COCCn1cnc2c(N)ncnc21.O=C(O)/C=C/C(=O)O | 50 µM | 400 µM | 8 |  |  | 
COC(=O)[C@H](Cc1ccccc1)N1CCCOP1(=O)COCCn1cnc2c(N)ncnc21.O=C(O)/C=C/C(=O)O (some centres not stated) | 2.62 µM | 726 µM | 277 |  |  | 
COC(=O)CN1CCCOP1(=O)COCCn1cnc2c(N)ncnc21.O=C(O)/C=C/C(=O)O (racemic) | 0.88 µM | 602 µM | 683 |  |  | 
CCOC(=O)[C@H](C(C)C)N1CCCO[P@]1(=O)COCCn1cnc2c(N)ncnc21.O=C(O)/C=C/C(=O)O | 3 µM | 560 µM | 187 |  |  | 
COC(=O)[C@H](C(C)C)N1CCCO[P@@]1(=O)COCCn1cnc2c(N)ncnc21.O=C(O)/C=C/C(=O)O |  |  |  |  | > 6 h | 
CC(C)(C)C(=O)OCOP(=O)(COCCn1cnc2c(N)ncnc21)OCOC(=O)C(C)(C)C [ADEFOVIR DIPIVOXIL] | 0.33 µM | 555 µM |  |  |  | 
CCOC(=O)[C@H](C(C)C)N1CCCO[P@@]1(=O)COCCn1cnc2c(N)ncnc21.O=C(O)/C=C/C(=O)O | 50 µM | 468 µM | 9 |  |  | 
COC(=O)[C@H](CC(C)C)N1CCCOP1(=O)COCCn1cnc2c(N)ncnc21.O=C(O)/C=C/C(=O)O (some centres not stated) | 0.32 µM | 222 µM | 694 |  |  | 
CCOC(=O)[C@@H](C(C)C)N1CCCO[P@@]1(=O)COCCn1cnc2c(N)ncnc21.O=C(O)/C=C/C(=O)O | 50 µM | 439 µM | 9 |  |  | 
CCC(C)[C@@H](C(=O)OC)N1CCCOP1(=O)COCCn1cnc2c(N)ncnc21.O=C(O)/C=C/C(=O)O (some centres not stated) | 2.21 µM | 648 µM | 293 |  |  | 
